IC50 data for 25 molecules are collected here from patent publication US20240391882A1 (Mirati Therapeutics, Inc., priority 2023, published 2024).

Experiment [1] concerns T47D (PI3Kα H1047R mutant) cells. Kind of experiment: Cell viability (CellTiter-Glo 2.0) in T47D cells. Format: cell-based. The conditions noted are these: Homo sapiens, T47D, 72 h, approximately 72 hours. Summed up:
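SKBR3 or T47D cells, 1000 per well, were seeded overnight and then exposed ~72 h at 37° C to 10 concentrations of compound, 1:4 dilutions from 10 μm. Viability read by CellTiter-Glo luminescence as percent of vehicle; IC50 from four-parameter variable-slope fit.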

Experiment [2] concerns SKBR3 (PI3Kα wild type) cells. Kind of experiment: Cell viability (CellTiter-Glo 2.0) in SKBR3 cells. The conditions noted are these: Homo sapiens, SK-BR-3; SKBR3 (PI3Kα wild type) cells, approximately 72 hours, CellTiter-Glo 2.0; read-out: SKBR3 (WT) Viability IC50. Format: cell-based. The method, then:
This Example illustrates that representative compounds of the invention decrease the viability of cells.
The ability of a compound of Formula (I) to decrease the viability of cells was measured using CellTiter-Glo 2.0 (CTG) Luminescent Cell Viability Assay (#G9241) obtained from Promega (Madison, WI).
To prepare assay plates for viability assays, cells were trypsinized, resuspended in fresh media, and viable cells were counted utilizing trypan blue exclusion. T47D, SKBR3, or MKN1 cells were seeded at 1000 cells in 30 μl per well in a solid white flat bottom 384 cell culture plate (Perkin Elmer #6007680) and incubated at 37° C. overnight.
Assay day 1, cells were dosed using an Echo Liquid Handler (Beckman Coulter) with compounds at a 10 μm starting concentration and serially diluted (1:4) for a total of 10 concentrations. Cells were incubated for approximately 72 hours with the compounds (solubilized in DMSO) at 37° C. After 72 hours of treatment, cell plates were equilibrated to room temperature before adding 15 μl of CTG to each well, plates were then covered in aluminum foil to protect from light, incubated at room temperature for 30 minutes on a microtiter plate shaker, and luminescence readings were collected using a CLARIOstar microplate reader (BMG Labtech, Germany). Percent of vehicle control values were plotted as log(inhibitor) vs. response—Variable slope (four parameters) for curve fitting and IC50 values were determined using XLfit.

In the case of `CO[C@H]1CCN(c2nc3c([C@@H](C)Nc4ccccc4C(=O)O)cc(C)cc3nc2C#N)C1` (single isomer, unassigned) [Example 72A], the half-maximal inhibitory concentration (IC50) in experiment [1] is 0.298 µM; in experiment [2], > 10 µM.

For `CO[C@@H]1CCN(c2nc3c([C@@H](C)Nc4ccccc4C(=O)O)cc(C)cc3nc2C#N)C1` (single isomer, unassigned) [Example 72B], the results for the IC50 in experiment [1] and in experiment [2] were 0.0963 µM and > 10 µM, respectively.

Regarding `CO[C@@H]1CCN(c2nc3c([C@@H](C)Nc4ccc(Cl)nc4C(=O)O)cc(C)cc3nc2C#N)C1` (single isomer, unassigned) [Example 110A], the IC50 is 0.298 µM in experiment [1] and > 10 µM in experiment [2].

`CO[C@H]1CCN(c2nc3c([C@@H](C)Nc4ccc(Cl)nc4C(=O)O)cc(C)cc3nc2C#N)C1` (single isomer, unassigned) [Example 110B]: the IC50 is 0.0963 µM in experiment [1] and > 10 µM in experiment [2].

Turning to `Cc1cc([C@@H](C)Nc2ccc(Cl)nc2C(=O)O)c2nc(N3CCCC(F)(F)C3)c(C#N)nc2c1` [Example 12, (R)-6-chloro-3-((1-(2-cyano-3-(3,3-difluoropiperidin-1-yl)-7-methylquinoxalin-5-yl)ethyl)amino)picolinic acid], the figures for the IC50 in experiment [1] and in experiment [2] were 0.16 µM and > 10 µM, respectively.

In the case of `Cc1cc([C@@H](C)Nc2ccc(Cl)nc2C(=O)O)c2nc(NCC3(C(F)(F)F)CC3)c(C#N)nc2c1` [Example 15, (R)-6-chloro-3-((1-(2-cyano-7-methyl-3-(((1-(trifluoromethyl)cyclopropyl)methyl)amino)quinoxalin-5-yl)ethyl)amino)picolinic acid], the half-inhibitory concentration (IC50) in experiment [1] was 0.12 µM; in experiment [2], > 10 µM.

Regarding `Cc1cc([C@@H](C)Nc2scnc2C(=O)O)c2nc(N3CCC(F)(F)CC3)c(C#N)nc2c1` [Example 39, (R)-5-((1-(2-cyano-3-(4,4-difluoropiperidin-1-yl)-7-methylquinoxalin-5-yl)ethyl)amino)thiazole-4-carboxylic acid], the figures for the concentration for half-maximal inhibition (IC50) in experiment [1] and in experiment [2] were 2.68 µM and 6.23 µM, respectively.

Regarding `Cc1cc([C@@H](C)Nc2ccc(Cl)nc2C(=O)O)c2nc(N3CCC(F)(F)CC3)c(C3CC3)nc2c1` [Example 48, (R)-6-chloro-3-((1-(2-cyclopropyl-3-(4,4-difluoropiperidin-1-yl)-7-methylquinoxalin-5-yl)ethyl)amino)picolinic acid], the IC50 is 0.0953 µM in experiment [1] and > 10 µM in experiment [2].

`Cc1cc([C@@H](C)Nc2ccccc2C(=O)O)c2nc(N3CC4(COC4)C3)c(C#N)nc2c1` [Example 59, (R)-2-((1-(2-cyano-7-methyl-3-(2-oxa-6-azaspiro[3.3]heptan-6-yl)quinoxalin-5-yl)ethyl)amino)benzoic acid]: the concentration for half-maximal inhibition (IC50) was 0.14 µM in experiment [1] and > 10 µM in experiment [2].

With `Cc1cc([C@@H](C)Nc2ccc(Cl)nc2C(=O)O)c2nc(N3CC4(COC4)C3)c(C#N)nc2c1` [Example 60, (R)-6-chloro-3-((1-(2-cyano-7-methyl-3-(2-oxa-6-azaspiro[3.3]heptan-6-yl)quinoxalin-5-yl)ethyl)amino)picolinic acid], the concentration for half-maximal inhibition (IC50) is 0.0211 µM in experiment [1] and > 10 µM in experiment [2].

For the molecule `Cc1cc([C@@H](C)Nc2ccccc2C(=O)O)c2nc(N3CCC(C)(C(F)(F)F)CC3)c(C#N)nc2c1` [Example 65, (R)-2-((1-(2-cyano-7-methyl-3-(4-methyl-4-(trifluoromethyl)piperidin-1-yl)quinoxalin-5-yl)ethyl)amino)benzoic acid], the results for the IC50 in experiment [1] and in experiment [2] were 0.456 µM and > 10 µM, respectively.

Turning to `Cc1cc([C@@H](C)Nc2ccc(Cl)nc2C(=O)O)c2nc(N3CCC(C)(C(F)(F)F)CC3)c(C#N)nc2c1` [Example 66, (R)-6-chloro-3-((1-(2-cyano-7-methyl-3-(4-methyl-4-(trifluoromethyl)piperidin-1-yl)quinoxalin-5-yl)ethyl)amino)picolinic acid], the half-inhibitory concentration (IC50) is 0.078 µM in experiment [1] and 7.68 µM in experiment [2].

On to `Cc1cc([C@@H](C)Nc2ccccc2C(=O)O)c2nc(N3CCC(F)(F)C3)c(C#N)nc2c1` [Example 71, (R)-2-((1-(2-cyano-3-(3,3-difluoropyrrolidin-1-yl)-7-methylquinoxalin-5-yl)ethyl)amino)benzoic acid], for which the IC50 in experiment [1] was 0.276 µM; in experiment [2], > 10 µM.

In the case of `Cc1cc([C@@H](C)Nc2ccc(Cl)nc2C(=O)O)c2nc(NCC3(C)CC3(F)F)c(C#N)nc2c1` (stereo partly drawn) [Example 74, 6-chloro-3-(((1R)-1-(2-cyano-3-(((2,2-difluoro-1-methylcyclopropyl)methyl)amino)-7-methylquinoxalin-5-yl)ethyl)amino)picolinic acid], the IC50 was 0.095 µM in experiment [1] and > 10 µM in experiment [2].

With `Cc1cc([C@@H](C)Nc2ccccc2C(=O)O)c2nc(NC3CC(F)(F)C3)c(C#N)nc2c1` [Example 76, (R)-2-((1-(2-cyano-3-((3,3-difluorocyclobutyl)amino)-7-methylquinoxalin-5-yl)ethyl)amino)benzoic acid], the IC50 in experiment [1] is 0.324 µM; in experiment [2] it was > 10 µM.

As to `Cc1cc([C@@H](C)Nc2ccc(Cl)nc2C(=O)O)c2nc(NC3CC(F)(F)C3)c(C#N)nc2c1` [Example 77, (R)-6-chloro-3-((1-(2-cyano-3-((3,3-difluorocyclobutyl)amino)-7-methylquinoxalin-5-yl)ethyl)amino)picolinic acid], the IC50 in experiment [1] amounted to 0.077 µM; in experiment [2], 8.61 µM.

Regarding `Cc1cc([C@@H](C)Nc2ccc(Cl)nc2C(=O)O)c2nc(N3CCC(F)(F)[C@H](C)C3)c(C#N)nc2c1` [Example 78A, 6-chloro-3-(((R)-1-(2-cyano-3-((R)-4,4-difluoro-3-methylpiperidin-1-yl)-7-methylquinoxalin-5-yl)ethyl)amino)picolinic acid], the IC50 in experiment [1] was found to be 0.126 µM; in experiment [2], 7.06 µM.

`Cc1cc([C@@H](C)Nc2ccc(Cl)nc2C(=O)O)c2nc(N3CCC(F)(F)[C@@H](C)C3)c(C#N)nc2c1` [Example 78B, 6-chloro-3-(((R)-1-(2-cyano-3-((S)-4,4-difluoro-3-methylpiperidin-1-yl)-7-methylquinoxalin-5-yl)ethyl)amino)picolinic acid]: the IC50 was 0.0844 µM in experiment [1] and > 10 µM in experiment [2].

Take `Cc1cc([C@@H](C)Nc2ccccc2C(=O)O)c2nc(N3CCC(F)(F)[C@@H](C)C3)c(C#N)nc2c1` [Example 79A, 2-(((R)-1-(2-cyano-3-((S)-4,4-difluoro-3-methylpiperidin-1-yl)-7-methylquinoxalin-5-yl)ethyl)amino)benzoic acid]: the IC50 in experiment [1] is 0.252 µM; in experiment [2], > 10 µM.

On to `Cc1cc([C@@H](C)Nc2ccccc2C(=O)O)c2nc(N3CCC(F)(F)[C@H](C)C3)c(C#N)nc2c1` [Example 79B, 2-(((R)-1-(2-cyano-3-((R)-4,4-difluoro-3-methylpiperidin-1-yl)-7-methylquinoxalin-5-yl)ethyl)amino)benzoic acid], for which the half-maximal inhibitory concentration (IC50) was 0.176 µM in experiment [1] and > 10 µM in experiment [2].

In the case of `Cc1cc([C@@H](C)Nc2ccc(Cl)nc2C(=O)O)c2nc(N3CCc4ccccc4C3)c(C#N)nc2c1` [Example 83, (R)-6-chloro-3-((1-(2-cyano-3-(3,4-dihydroisoquinolin-2(1H)-yl)-7-methylquinoxalin-5-yl)ethyl)amino)picolinic acid], the IC50 was 0.0607 µM in experiment [1] and > 10 µM in experiment [2].

As for `Cc1cc([C@@H](C)Nc2ccccc2C(=O)O)c2nc(N3CCc4ccccc4C3)c(C#N)nc2c1` [Example 84, (R)-2-((1-(2-cyano-3-(3,4-dihydroisoquinolin-2(1H)-yl)-7-methylquinoxalin-5-yl)ethyl)amino)benzoic acid], the IC50 in experiment [1] is 0.343 µM; in experiment [2], > 10 µM.

For `Cc1cc([C@@H](C)Nc2ccccc2C(=O)O)c2nc(N3CCc4cc(C#N)ccc4C3)c(C#N)nc2c1` [Example 86, (R)-2-((1-(2-cyano-3-(6-cyano-3,4-dihydroisoquinolin-2(1H)-yl)-7-methylquinoxalin-5-yl)ethyl)amino)benzoic acid], the figures for the IC50 in experiment [1] and in experiment [2] were 0.27 µM and > 10 µM, respectively.

In the case of `Cc1cc([C@@H](C)Nc2ccc(Cl)nc2C(=O)O)c2nc(N3CCc4cc(F)ccc4C3)c(C#N)nc2c1` [Example 87, (R)-6-chloro-3-((1-(2-cyano-3-(6-fluoro-3,4-dihydroisoquinolin-2(1H)-yl)-7-methylquinoxalin-5-yl)ethyl)amino)picolinic acid], the concentration for half-maximal inhibition (IC50) in experiment [1] worked out at 0.0887 µM; in experiment [2], 9.25 µM.

`Cc1cc([C@@H](C)Nc2ccccc2C(=O)O)c2nc(N3CCc4cc(F)ccc4C3)c(C#N)nc2c1` [Example 88, (R)-2-((1-(2-cyano-3-(6-fluoro-3,4-dihydroisoquinolin-2(1H)-yl)-7-methylquinoxalin-5-yl)ethyl)amino)benzoic acid]: the 50% inhibitory concentration (IC50) was 0.365 µM in experiment [1] and > 10 µM in experiment [2].

A word on the IC50: it is the concentration that inhibits the measured activity by half.
